Laboratory results published in PMC3277506, “Extra-Renal Elimination of Uric Acid via Intestinal Efflux Transporter BCRP/ABCG2” (PLoS ONE, 2012).
Where two headings read alike, the source gives them in different places.

Key:
[1] = Plasma uric acid, intestinal and renal clearance in oxonate-treated wild-type and Bcrp1 knockout mice; assay type: in vivo; settings: for Intestinal secretory clearance of endogenous uric acid / Renal clearance of endogenous uric acid: oxonate-treated; for Intestinal secretory clearance of endogenous uric acid: ileum closed loop; for Renal clearance of endogenous uric acid: metabolic cages
Description: (§1) Male Wistar rats (280±30 g body weight) used in the present study were treated with potassium oxonate, a uric acid oxidase (uricase) inhibitor. Oxonate-treated rats were established as described previously, [48]. Briefly, rats were anesthetized with 50% urethane (2 mL/kg) and infused with 0.9% NaCl, 0.5% oxonate and 4% mannitol solution from the femoral vein at the flow rate of 3 mL/hr. As a bolus, 0.9% NaCl, 1.5% oxonate and 4% mannitol solution was administered from the jugular vein at 6 mL/kg. After equilibration for 80 min, blood, urine and bile samples were collected at 20-min intervals. When [^14C]uric acid (2 µCi/rat) was used, it was intravenously injected from the jugular vein after oxonate treatment for 80 min. In order to suppress the uricolysis of [^14C]uric acid by intestinal flora, animals received orally non-absorbed antibiotics, polymyxin B, kanamycin, and vancomycin at daily doses of 50, 50 and 20 mg/kg, respectively, for 7 days before this animal study. Urine and bile were collected at 20-min intervals, and blood samples were drawn at 1, 5, 10, 20, 40, 60, 80, 100 and 120 min. Urine and bile were collected from bladder and bile ducts, respectively, and blood from the jugular vein. In mice, urine was collected for 24 hours by using metabolic cages (Natsume, Tokyo, Japan).
Mice were treated with oxonate (intraperitoneal injection of 200 mg/kg oxonate in 1% arabic gum solution) at 1 hr before injection of PB solution into the intestinal loop. Blood was withdrawn from the jugular vein at 1, 30 and 60 min. At 60 min, the intestinal luminal content was collected for measurement of intestinally secreted uric acid.
The following equation was used to calculate intestinal secretory clearance (µL/min/cm loop) and estimated total intestinal secretory clearance (CLintestine, estimated) (mL/min): [drawing 1] [drawing 2] [drawing 3] where A is the amount of uric acid secreted into the intestinal lumen of each loop for 60 min, L is the length of the intestine, and AUC is area under the plasma concentration-time curve.

hMDR1 = target: T1, hMDR1 (Homo sapiens, UniProt P08183); experiment: [14C]uric acid uptake by hMDR1-expressing membrane vesicles; assay type: biochemical; settings: [14C]uric acid 20 µM, 5 min, 37°C, 4 mM ATP or AMP
T1 construct: purchased GenoMembrane Inc. (Yokohama, Japan); host or cells: Sf9 cells
T1 sequence (P08183 whole entry): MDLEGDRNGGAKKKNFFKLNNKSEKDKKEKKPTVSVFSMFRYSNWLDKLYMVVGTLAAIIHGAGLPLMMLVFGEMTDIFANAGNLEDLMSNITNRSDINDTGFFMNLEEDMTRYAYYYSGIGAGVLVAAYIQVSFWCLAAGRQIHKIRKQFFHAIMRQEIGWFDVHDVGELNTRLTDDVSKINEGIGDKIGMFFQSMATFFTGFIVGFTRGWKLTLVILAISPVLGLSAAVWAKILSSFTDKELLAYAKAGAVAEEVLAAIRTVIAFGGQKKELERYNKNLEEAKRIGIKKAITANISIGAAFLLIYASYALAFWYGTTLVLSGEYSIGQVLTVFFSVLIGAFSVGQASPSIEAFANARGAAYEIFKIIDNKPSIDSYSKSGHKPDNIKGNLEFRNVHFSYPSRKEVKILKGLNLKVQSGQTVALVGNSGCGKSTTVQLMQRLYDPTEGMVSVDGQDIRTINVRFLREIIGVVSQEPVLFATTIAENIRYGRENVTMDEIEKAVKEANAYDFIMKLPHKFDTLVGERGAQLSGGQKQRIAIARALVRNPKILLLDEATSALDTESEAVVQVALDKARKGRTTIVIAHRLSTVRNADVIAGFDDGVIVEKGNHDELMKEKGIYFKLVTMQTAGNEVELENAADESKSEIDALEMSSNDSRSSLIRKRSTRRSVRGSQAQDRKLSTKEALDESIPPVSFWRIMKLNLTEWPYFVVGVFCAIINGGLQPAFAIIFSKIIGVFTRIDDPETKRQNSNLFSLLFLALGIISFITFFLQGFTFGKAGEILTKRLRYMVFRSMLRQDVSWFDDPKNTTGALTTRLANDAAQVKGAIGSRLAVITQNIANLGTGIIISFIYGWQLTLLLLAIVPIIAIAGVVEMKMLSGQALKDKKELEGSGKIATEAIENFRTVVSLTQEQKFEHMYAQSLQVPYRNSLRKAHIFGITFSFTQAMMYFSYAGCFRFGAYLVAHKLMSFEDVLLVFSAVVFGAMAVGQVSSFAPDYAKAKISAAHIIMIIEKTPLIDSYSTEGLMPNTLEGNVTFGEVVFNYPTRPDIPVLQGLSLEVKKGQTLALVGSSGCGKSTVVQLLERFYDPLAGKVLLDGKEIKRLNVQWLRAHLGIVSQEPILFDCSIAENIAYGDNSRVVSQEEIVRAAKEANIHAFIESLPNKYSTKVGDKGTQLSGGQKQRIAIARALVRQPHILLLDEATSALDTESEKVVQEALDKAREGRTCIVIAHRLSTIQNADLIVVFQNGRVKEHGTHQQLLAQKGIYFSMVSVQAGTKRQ
Description: (§2) hBCRP/rBcrp, hMRP2/rMrp2, or hMDR1-expressing membrane vesicles prepared from Sf9 cells were purchased from GenoMembrane Inc. (Yokohama, Japan). Uptake experiments were conducted as described previously. Briefly, after a pre-incubation for 5 min at 37°C, membrane vesicles (50 µg protein/50 µL final reaction volume) were incubated for 5 min at 37°C in the presence of 4 mM ATP or AMP in assay buffer (1 M KCl, 1 M MgCl2, and 100 mM MOPS-Tris, pH 7.0) containing [^14C]uric acid (1 µCi/mL). The uptake reaction was terminated by adding 1 mL ice-cold washing buffer (1 M KCl, and 100 mM MOPS-Tris, pH 7.0) to the membrane solution, and the mixture was rapidly filtered through a nitrocellulose filter (0.45 µm pore size, Millipore, Bedford, MA). The filters were washed twice with 5 mL ice-cold washing buffer. The filters were dried and dissolved in Clearsol-I for quantitation of radioactivity.

hMRP2 = target: T2, hMRP2 (Homo sapiens, UniProt Q92887); experiment: [14C]uric acid uptake by hMRP2-expressing membrane vesicles; assay type: biochemical; settings: [14C]uric acid 20 µM, 5 min, 37°C, 4 mM ATP or AMP
T2 construct: purchased GenoMembrane Inc. (Yokohama, Japan); host or cells: Sf9 cells
T2 sequence (Q92887 whole entry): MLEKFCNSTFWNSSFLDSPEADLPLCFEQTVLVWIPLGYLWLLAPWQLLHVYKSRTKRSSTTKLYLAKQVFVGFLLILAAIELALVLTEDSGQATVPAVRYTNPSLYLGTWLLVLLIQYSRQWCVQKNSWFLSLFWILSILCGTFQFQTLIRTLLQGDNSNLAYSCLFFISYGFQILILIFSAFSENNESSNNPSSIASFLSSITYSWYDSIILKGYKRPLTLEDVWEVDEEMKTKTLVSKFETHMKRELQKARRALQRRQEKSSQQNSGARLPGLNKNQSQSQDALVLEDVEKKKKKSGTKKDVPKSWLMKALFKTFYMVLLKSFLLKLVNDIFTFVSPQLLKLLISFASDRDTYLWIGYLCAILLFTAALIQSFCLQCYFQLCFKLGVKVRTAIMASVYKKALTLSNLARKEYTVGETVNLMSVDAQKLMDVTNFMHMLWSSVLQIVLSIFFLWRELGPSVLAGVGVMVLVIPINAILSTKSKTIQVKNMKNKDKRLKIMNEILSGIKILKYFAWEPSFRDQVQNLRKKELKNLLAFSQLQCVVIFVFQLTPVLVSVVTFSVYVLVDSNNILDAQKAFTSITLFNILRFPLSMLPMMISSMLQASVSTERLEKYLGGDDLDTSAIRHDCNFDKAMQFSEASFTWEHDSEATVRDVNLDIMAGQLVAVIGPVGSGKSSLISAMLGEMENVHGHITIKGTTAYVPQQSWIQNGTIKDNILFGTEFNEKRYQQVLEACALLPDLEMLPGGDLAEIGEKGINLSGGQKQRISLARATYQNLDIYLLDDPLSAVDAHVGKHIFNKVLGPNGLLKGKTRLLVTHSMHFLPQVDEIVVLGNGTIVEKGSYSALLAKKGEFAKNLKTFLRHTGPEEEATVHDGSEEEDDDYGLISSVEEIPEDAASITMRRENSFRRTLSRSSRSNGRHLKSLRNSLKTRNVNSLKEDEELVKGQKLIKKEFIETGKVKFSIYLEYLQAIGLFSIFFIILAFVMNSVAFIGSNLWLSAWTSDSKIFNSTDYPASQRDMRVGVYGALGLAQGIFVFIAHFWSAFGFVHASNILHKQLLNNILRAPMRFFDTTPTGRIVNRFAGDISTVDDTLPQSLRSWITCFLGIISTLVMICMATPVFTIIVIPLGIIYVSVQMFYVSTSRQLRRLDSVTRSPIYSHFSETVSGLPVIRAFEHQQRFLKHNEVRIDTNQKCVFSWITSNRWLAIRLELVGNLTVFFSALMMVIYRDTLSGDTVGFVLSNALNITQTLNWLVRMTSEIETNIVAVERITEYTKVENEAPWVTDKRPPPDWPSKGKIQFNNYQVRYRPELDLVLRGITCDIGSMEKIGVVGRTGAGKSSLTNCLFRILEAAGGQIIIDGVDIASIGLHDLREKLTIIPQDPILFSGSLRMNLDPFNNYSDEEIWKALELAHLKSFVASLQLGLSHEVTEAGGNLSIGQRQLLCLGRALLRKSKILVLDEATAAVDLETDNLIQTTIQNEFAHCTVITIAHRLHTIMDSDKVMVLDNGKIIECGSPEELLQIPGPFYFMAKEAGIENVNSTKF
Description: as §2

[2] = Recovery of [14C]uric acid after intravenous administration in oxonate-treated rats; assay type: in vivo; settings: percentage of dose; for dose excreted: male, Wistar, rat, iv, 2 µCi/rat
Description: as §1

rBcrp = target: T3, rBcrp (Rattus norvegicus, UniProt Q80W57); experiment: [14C]uric acid uptake by rBcrp-expressing membrane vesicles; assay type: biochemical; set-up: purchased GenoMembrane Inc. (Yokohama, Japan); host or cells: Sf9 cells
T3 sequence (Q80W57 1-657): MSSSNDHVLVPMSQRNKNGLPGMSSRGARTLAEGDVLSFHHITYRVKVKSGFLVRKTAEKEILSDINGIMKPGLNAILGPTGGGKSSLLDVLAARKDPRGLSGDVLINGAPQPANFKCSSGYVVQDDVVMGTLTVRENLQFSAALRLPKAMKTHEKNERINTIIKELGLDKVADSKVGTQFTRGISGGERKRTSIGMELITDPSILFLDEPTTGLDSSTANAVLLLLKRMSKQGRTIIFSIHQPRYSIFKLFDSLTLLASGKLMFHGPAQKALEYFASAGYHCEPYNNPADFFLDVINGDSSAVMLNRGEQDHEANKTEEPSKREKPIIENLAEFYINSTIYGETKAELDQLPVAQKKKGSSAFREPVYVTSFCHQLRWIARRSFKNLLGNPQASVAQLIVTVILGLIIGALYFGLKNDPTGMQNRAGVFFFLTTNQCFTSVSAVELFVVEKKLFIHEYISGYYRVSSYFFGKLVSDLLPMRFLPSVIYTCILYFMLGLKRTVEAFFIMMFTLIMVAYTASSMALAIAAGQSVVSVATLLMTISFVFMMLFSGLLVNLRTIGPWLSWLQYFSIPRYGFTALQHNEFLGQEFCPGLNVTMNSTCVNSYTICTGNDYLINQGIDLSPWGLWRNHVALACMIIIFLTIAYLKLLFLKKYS
Description: as §2

With `O=c1[nH]c(=O)c2[nH]c(=O)[nH]c2[nH]1` [uric acid] the “Intestinal secretory clearance of endogenous uric acid” value ([1]; Bcrp1−/− mice) was 0.61 ± 0.08 µL/min/cm, the “Renal clearance of endogenous uric acid” value ([1]; Bcrp1−/− mice) was 16.0 ± 1.77 µL/min and the “Plasma uric acid level in Bcrp1−/− mice compared with wild-type mice” value ([1]; after oxonate treatment) was “much higher”. For the same molecule, the “Intestinal secretory clearance of endogenous uric acid” value ([1]; wild-type mice) was 1.04 ± 0.11 µL/min/cm, the “Renal clearance of endogenous uric acid” value ([1]; wild-type mice) was 23.5 ± 1.42 µL/min and the “ATP-dependent uric acid uptake” value (hMDR1) was “inactive”. For the same molecule, the “ATP-dependent uric acid uptake” value (hMRP2) was “inactive”, the dose excreted ([2]; bile + intestine, up to 120 min, read-out: Recovery of [14C]uric acid, Bile+Intestine) was 9.58% and the dose excreted ([2]; bile, up to 120 min, read-out: Recovery of [14C]uric acid, Bile) was 0.68%. The dose excreted ([2]; urine, up to 120 min, read-out: Recovery of [14C]uric acid, Urine) was 42.6%, the “Recovery of [14C]uric acid, Cp×Vd (remaining in the body)” value ([2]; iv 2 µCi/rat, 2 hrs after administration, rough estimation from distribution volume and plasma concentration) was 4.55% and the “Recovery of [14C]uric acid, Intestine (luminal contents)” value ([2]; iv 2 µCi/rat, up to 120 min) was 8.90%. For the same molecule, the “Recovery of [14C]uric acid, Urine” value ([2]; iv 2 µCi/rat, up to 120 min) was 42.58%, the “Vmax of uric acid transport by rBcrp” value (rBcrp; ATP-dependent uptake, maximum uric acid concentration 5 mM) was 67.3±4.21 nmol/5 min/mg protein and the “Uptake of uric acid in the presence of ATP versus AMP” value (rBcrp; [14C]uric acid 20 µM, 5 min, 37°C, 4 mM ATP or AMP) was “significantly higher”.
